System: MSSA
Assay: Specificity of the medium on the MSSA strains
Assay type: cell-based, Staphylococcus aureus
Conditions: 8 MSSA strains; for number of MSSA strains that grew at 24 h after stress: plates 3 days at 37° C. before inoculation
Description: The basal medium comprises peptone, salts, antifungal and antibacterial agents to inhibit the growth of Gram negative bacteria and fungi. The basal medium is chosen to promote the growth of staphylococci, in particular Staphylococcus aureus.
Several strains of MRSA (methicillin resistant S. aureus) and MSSA (methicillin susceptible S. aureus) have been chosen from a collection of strains. Strains were cultivated first on a non selective medium. The colonies are used to perform a “heavy inoculum or HI”, corresponding to approximately 10^8 bacteria/mL inoculated as a spot on a small portion of the plate, and a “light inoculum or LI”, corresponding to approximately 10^5 bacteria/mL streaked on a large portion of the plate. Plates were incubated for 48 h at 35-37° C. The reading was performed at 24 and 48 h of incubation time.
Abbreviations and legends to the Tables: • cefotetan (CTT) • ceftriaxone (CRO) • cefuroxime (CXM) • cefsulodin (CFS), • Cefepime (FEP) • Cefoperazone (CFP) • cefpodoxime (CPD) • moxalactam (MOX) • cefoxitin (FOX) • cefmetazole (CMT) • ceftiofur (XLN) • G: growth (if nothing else is written, “G” means growth with HI and LI at 24 h); Imp G: heavy growth; AG: absence of growth; cfu: colony forming unit; μcfu: pinpoint colonies; SENS: Sensitivity (%); SPE: Specificity (%); MRSA: methicillin-resistant Staphylococcus aureus; MSSA: methicillin-sensitive Staphylococcus aureus; MRSE: methicillin-resistant Staphylococcus epidermidis; MSSE: methicillin-sensitive Staphylococcus epidermidis; Results
When two cephalosporins are added, the stability of the formula is increased. Due to the fact that the molecules are unstable, growth of MSSA often appears after stress. The inventors have mimicked the stress due to transportation of the Petri dishes to the customer's lab, in summer, by placing the plates for 3 days at 37° C. before inoculation and incubation 24 or 48 h. The basal medium composition was the same as described in Example 1. Abbreviations have the same meaning.

Row | Structure (SMILES) | number of MSSA strains that grew at 24 h after stress | number of MSSA strains able to grow at 24 h (plates not submitted to stress)
1 | CO/N=C(\C(=O)N[C@@H]1C(=O)N2C(C(=O)O)=C(CSc3nc(=O)c(=O)[nH]n3C)CS[C@H]12)c1csc(N)n1 [CRO, ceftriaxone] | four | one
2 | CO[C@@]1(NC(=O)Cc2cccs2)C(=O)N2C(C(=O)O)=C(COC(N)=O)CS[C@@H]21 [FOX, cefoxitin] | 4 | 
3 | CO[C@@]1(NC(=O)C(C(=O)O)c2ccc(O)cc2)C(=O)N2C(C(=O)O)=C(CSc3nnnn3C)CO[C@@H]21 (stereo partly shown) [MOX, moxalactam] | 4 | 
